According to patent US9957263B2, “Bromodomain inhibitors” (AbbVie Inc., priority 2013, dated 2018):

Experiments:
BRD4 (BDII_E352-M457) = BRD4 (BDII_E352-M457) (Homo sapiens (Human), UniProt O60885); assay: TR-FRET bromodomain binding assay, BRD4 second bromodomain; settings: His-tagged BD2, Alexa647-labeled probe 30 nM
Protocol: (§1) A time-resolved fluorescence resonance energy transfer (TR-FRET) assay was used to determine the affinities of compounds of the Examples listed in Table 1 for each bromodomain of BRD4. His-tagged first (BD1: amino acids K57-E168) and second (BD2: amino acids E352-E168) bromodomains of BRD4 were expressed and purified. An Alexa647-labeled BET-inhibitor was used as the fluorescent probe in the assay.
(§2) Compound dilution series were prepared in DMSO via a 3-fold serial dilution from 2.5 mM to 42 nM. Compounds were then diluted 6:100 in assay buffer (20 mM Sodium Phosphate, pH 6.0, 50 mM NaCl, 1 mM Ethylenediaminetetraacetic acid disodium salt dihydrate, 0.01% Triton X-100, 1 mM DL-Dithiothreitol) to yield 3× working solutions. Six microliters (μL) of the working solution was then transferred to white, low-volume assay plates (Costar #3673). A 1.5× assay mixture containing His-tagged bromodomain, Europium-conjugated anti-His antibody (Invitrogen PV5596) and the Alexa-647-conjugated probe molecule was also prepared. Twelve μL of this solution were added to the assay plate to reach a final volume of 18 μL. The final concentration of 1× assay buffer contains 2% DMSO, 50 μM-0.85 nM compound, 8 nM His-tagged bromodomain, 1 nM Europium-conjugated anti-His-tag antibody and 100 nM or 30 nM probe (for BDI or BDII, respectively). After a one-hour incubation at room temperature, TR-FRET ratios were determined using an Envision multilabel plate reader (Ex 340, Em […]).
(§3) TR-FRET data were normalized to the means of 24 no-compound controls (“high”) and 8 controls containing 1 μM un-labeled probe (“low”). Percent inhibition was plotted as a function of compound concentration and the data were fit with the 4 parameter logistic equation to obtain IC50s. Inhibition constants (Ki) were calculated from the IC50s, probe Kd and probe concentration. Typical Z′ values were between 0.65 and 0.75. The minimum significant ratio was determined to evaluate assay reproducibility (Eastwood et al., (2006) J Biomol Screen, 11: 253-261). The MSR was determined to be 2.03 for BDI and 1.93 for BDII, and a moving MSR (last six run MSR overtime) for both BDI and BDII was typically <3.

BRD4 (BDI_K57-E168) = BRD4 (BDI_K57-E168) (Homo sapiens (Human), UniProt O60885); assay: TR-FRET bromodomain binding assay, BRD4 first bromodomain; settings: His-tagged BD1, Alexa647-labeled probe 100 nM
Protocol: as §1, §2, §3

Compound | Ki (BRD4 (BDII_E352-M457)) | Ki (BRD4 (BDI_K57-E168))
Cc1cc(-c2ccc(-c3cn(C)c(=O)c4[nH]ccc34)c(OCC3CC3)c2)[nH]n1 [Example 1, 4-[2-(cyclopropylmethoxy)-4-(3-methyl-1H-pyrazol-5-yl)phenyl]-6-methyl-1,6-dihydro-7H-pyrrolo[2,3-c]pyridin-7-one] | 55 nM | 26 nM
CCS(=O)(=O)Nc1cc(-c2cn(C)c(=O)c3[nH]ccc23)c(Oc2ccc(F)cc2F)cc1CN1CCCCC1 [Example 3, N-[4-(2,4-difluorophenoxy)-5-(6-methyl-7-oxo-6,7-dihydro-1H-pyrrolo[2,3-c]pyridin-4-yl)-2-(piperidin-1-ylmethyl)phenyl]ethanesulfonamide] | 2.8 nM | 88 nM
CCS(=O)(=O)Nc1cc(-c2cn(C)c(=O)c3[nH]ccc23)c(Oc2ccc(F)cc2F)cc1CN1CCOCC1 [Example 4, N-[4-(2,4-difluorophenoxy)-5-(6-methyl-7-oxo-6,7-dihydro-1H-pyrrolo[2,3-c]pyridin-4-yl)-2-(morpholin-4-ylmethyl)phenyl]ethanesulfonamide] | 1.7 nM | 11 nM
CCS(=O)(=O)Nc1cc(-c2cn(C)c(=O)c3[nH]ccc23)c(Oc2ccc(F)cc2F)cc1CN1CCN(C)CC1 [Example 5, N-{4-(2,4-difluorophenoxy)-5-(6-methyl-7-oxo-6,7-dihydro-1H-pyrrolo[2,3-c]pyridin-4-yl)-2-[(4-methylpiperazin-1-yl)methyl]phenyl}ethanesulfonamide] | 1.7 nM | 16 nM
CCS(=O)(=O)Nc1cc(-c2cn(C)c(=O)c3[nH]ccc23)c(Oc2ccc(F)cc2F)cc1CO [Example 6, N-[4-(2,4-difluorophenoxy)-2-(hydroxymethyl)-5-(6-methyl-7-oxo-6,7-dihydro-1H-pyrrolo[2,3-c]pyridin-4-yl)phenyl]ethanesulfonamide] | 2 nM | 14 nM
CCS(=O)(=O)Nc1cc(-c2cn(C)c(=O)c3[nH]ccc23)c(Oc2ccc(F)cc2F)cc1CNC1CCCC1 [Example 7, N-{2-[(cyclopentylamino)methyl]-4-(2,4-difluorophenoxy)-5-(6-methyl-7-oxo-6,7-dihydro-1H-pyrrolo[2,3-c]pyridin-4-yl)phenyl}ethanesulfonamide] | 6.9 nM | 32 nM
CCS(=O)(=O)Nc1cc(-c2cn(C)c(=O)c3[nH]ccc23)c(Oc2ccc(F)cc2F)cc1C(N)=O [Example 8, 5-(2,4-difluorophenoxy)-2-[(ethylsulfonyl)amino]-4-(6-methyl-7-oxo-6,7-dihydro-1H-pyrrolo[2,3-c]pyridin-4-yl)benzamide] | 1.8 nM | 1.5 nM
CCS(=O)(=O)Nc1cc(-c2cn(C)c(=O)c3[nH]ccc23)c(Oc2ccc(F)cc2F)cc1C(=O)NC1CCCC1 [Example 9, N-cyclopentyl-5-(2,4-difluorophenoxy)-2-[(ethylsulfonyl)amino]-4-(6-methyl-7-oxo-6,7-dihydro-1H-pyrrolo[2,3-c]pyridin-4-yl)benzamide] | 2 nM | 1.7 nM
CCS(=O)(=O)Nc1cc(-c2cn(C)c(=O)c3[nH]ccc23)c(Oc2ccc(F)cc2F)cc1C(=O)N(C)C [Example 10, 5-(2,4-difluorophenoxy)-2-[(ethylsulfonyl)amino]-N,N-dimethyl-4-(6-methyl-7-oxo-6,7-dihydro-1H-pyrrolo[2,3-c]pyridin-4-yl)benzamide] | 8.3 nM | 72 nM
CCS(=O)(=O)Nc1cc(-c2cn(C)c(=O)c3[nH]ccc23)c(Oc2ccc(F)cc2F)cc1C(=O)O [Example 11, 5-(2,4-difluorophenoxy)-2-[(ethylsulfonyl)amino]-4-(6-methyl-7-oxo-6,7-dihydro-1H-pyrrolo[2,3-c]pyridin-4-yl)benzoic acid] | 1 nM | 0.8 nM
CCS(=O)(=O)Nc1cc(-c2cn(C)c(=O)c3[nH]ccc23)c(Oc2ccc(F)cc2F)cc1C(=O)NC1CCOCC1 [Example 12, 5-(2,4-difluorophenoxy)-2-[(ethylsulfonyl)amino]-4-(6-methyl-7-oxo-6,7-dihydro-1H-pyrrolo[2,3-c]pyridin-4-yl)-N-(tetrahydro-2H-pyran-4-yl)benzamide] | 1.6 nM | 1.8 nM
CCS(=O)(=O)Nc1cc(-c2cn(C)c(=O)c3[nH]ccc23)c(Oc2ccc(F)cc2F)cc1CNCCO [Example 13, N-[4-(2,4-difluorophenoxy)-2-{[(2-hydroxyethyl)amino]methyl}-5-(6-methyl-7-oxo-6,7-dihydro-1H-pyrrolo[2,3-c]pyridin-4-yl)phenyl]ethanesulfonamide] | 7.4 nM | 42 nM
CCS(=O)(=O)Nc1cc(-c2cn(C)c(=O)c3[nH]ccc23)c(Oc2ccc(F)cc2F)cc1CN1CCCC1c1ccccc1 (centres unmarked) [Example 14, N-{4-(2,4-difluorophenoxy)-5-(6-methyl-7-oxo-6,7-dihydro-1H-pyrrolo[2,3-c]pyridin-4-yl)-2-[(2-phenylpyrrolidin-1-yl)methyl]phenyl}ethanesulfonamide] | 14 nM | 71 nM
CCS(=O)(=O)Nc1cc(-c2cn(C)c(=O)c3[nH]ccc23)c(Oc2ccc(F)cc2F)c(C2CC2)c1 [Example 15, N-[3-cyclopropyl-4-(2,4-difluorophenoxy)-5-(6-methyl-7-oxo-6,7-dihydro-1H-pyrrolo[2,3-c]pyridin-4-yl)phenyl]ethanesulfonamide] | 2.6 nM | 4.6 nM
CCS(=O)(=O)c1ccc(OCC2CC2(F)F)c(-c2cn(C)c(=O)c3[nH]c(CN4CCN(c5ccncc5)CC4)cc23)c1 (centres unmarked) [Example 16, 4-{2-[(2,2-difluorocyclopropyl)methoxy]-5-(ethylsulfonyl)phenyl}-6-methyl-2-{[4-(pyridin-4-yl)piperazin-1-yl]methyl}-1,6-dihydro-7H-pyrrolo[2,3-c]pyridin-7-one] | 30 nM | 2.5 nM
CCS(=O)(=O)c1ccc(OCC2CC2(F)F)c(-c2cn(C)c(=O)c3[nH]c(CN4CCN(c5nccs5)CC4)cc23)c1 (centres unmarked) [Example 17, 4-{2-[(2,2-difluorocyclopropyl)methoxy]-5-(ethylsulfonyl)phenyl}-6-methyl-2-{[4-(1,3-thiazol-2-yl)piperazin-1-yl]methyl}-1,6-dihydro-7H-pyrrolo[2,3-c]pyridin-7-one] | 60 nM | 4.4 nM
CCS(=O)(=O)c1ccc(OCC2CC2(F)F)c(-c2cn(C)c(=O)c3[nH]c(CN4CCN(c5cnccn5)CC4)cc23)c1 (centres unmarked) [Example 18, 4-{2-[(2,2-difluorocyclopropyl)methoxy]-5-(ethylsulfonyl)phenyl}-6-methyl-2-{[4-(pyrazin-2-yl)piperazin-1-yl]methyl}-1,6-dihydro-7H-pyrrolo[2,3-c]pyridin-7-one] | 48 nM | 4.4 nM
CCS(=O)(=O)c1ccc(OCC2CC2(F)F)c(-c2cn(C)c(=O)c3[nH]c(CN4CCN(c5cccnc5)CC4)cc23)c1 (centres unmarked) [Example 20, 4-{2-[(2,2-difluorocyclopropyl)methoxy]-5-(ethylsulfonyl)phenyl}-6-methyl-2-{[4-(pyridin-3-yl)piperazin-1-yl]methyl}-1,6-dihydro-7H-pyrrolo[2,3-c]pyridin-7-one] | 48 nM | 4.9 nM
Cn1cc(-c2cc(S(C)(=O)=O)ccc2Oc2cccc(C(=O)NC3CC3)c2)c2cc[nH]c2c1=O [Example 21, N-cyclopropyl-3-[2-(6-methyl-7-oxo-6,7-dihydro-1H-pyrrolo[2,3-c]pyridin-4-yl)-4-(methylsulfonyl)phenoxy]benzamide] | 10 nM | 33 nM
Cn1cc(-c2cc(S(C)(=O)=O)ccc2Oc2cccc(C(=O)N3CCC(N4CCCC4)CC3)c2)c2cc[nH]c2c1=O [Example 24, 6-methyl-4-[5-(methylsulfonyl)-2-(3-{[4-(pyrrolidin-1-yl)piperidin-1-yl]carbonyl}phenoxy)phenyl]-1,6-dihydro-7H-pyrrolo[2,3-c]pyridin-7-one] | 12 nM | 15 nM
Cn1cc(-c2cc(S(C)(=O)=O)ccc2Oc2cccc(C(=O)NC3CCCCC3)c2)c2cc[nH]c2c1=O [Example 25, N-cyclohexyl-3-[2-(6-methyl-7-oxo-6,7-dihydro-1H-pyrrolo[2,3-c]pyridin-4-yl)-4-(methylsulfonyl)phenoxy]benzamide] | 6.1 nM | 19 nM
Cn1cc(-c2cc(S(C)(=O)=O)ccc2Oc2cccc(C(=O)N3CCN(CCO)CC3)c2)c2cc[nH]c2c1=O [Example 26, 4-[2-(3-{[4-(2-hydroxyethyl)piperazin-1-yl]carbonyl}phenoxy)-5-(methylsulfonyl)phenyl]-6-methyl-1,6-dihydro-7H-pyrrolo[2,3-c]pyridin-7-one] | 15 nM | 27 nM
